Consider 46 compounds from US9884832B2 (priority 2011, dated 2018).

The inhibition is the share of the control response that was lost under treatment.

The target in the first assay is AM2 S31 (wild-type serine at position 31 in the M2 protein), influenza virus A/Udorn/72 (Influenza A virus, UniProt P0DOF5). Description: cell-based. To be noted: 100 uM; Xenopus oocytes; activity range class; read-out: S31 OOcyte Inhibition at 100 uM (%).
Sequence of AM2 S31 (wild-type serine at position 31 in the M2 protein), influenza virus A/Udorn/72 (P0DOF5 whole entry, looked up): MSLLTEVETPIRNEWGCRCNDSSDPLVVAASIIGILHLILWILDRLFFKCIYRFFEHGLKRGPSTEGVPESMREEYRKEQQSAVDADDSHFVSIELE
Turning to `c1cc(CNC23CC4CC(CC(C4)C2)C3)cc(-c2ccco2)c1` [Example 30a, N-(3-(Furan-2-yl)benzyl)adamantan-1-amine], the inhibition at 100 µM was in the range of 0 to 30%.
Take `c1coc(-c2ccc(CNC34CC5CC(CC(C5)C3)C4)cc2)c1` [Example 31a, N-(4-(Furan-2-yl)benzyl)adamantan-1-amine]: the inhibition at 100 µM was in the range of 0 to 30%.
For `Cc1ccc(-c2ccc(CNC34CC5CC(CC(C5)C3)C4)cc2)o1.Cl` [Example 32a, N-(4-(5-Methylfuran-2-yl)benzyl)adamantan-1-amine hydrochloride], the inhibition at 100 µM fell in the range of 0 to 30%.
As for `Cc1noc(C)c1-c1ccc(CNC23CC4CC(CC(C4)C2)C3)cc1` [Example 33a, N-(4-(3,5-Dimethylisoxazol-4-yl)benzyl)adamantan-1-amine], the inhibition at 100 µM lay in the range of 0 to 30%.
On to `c1cc(CNC23CC4CC(CC(C4)C2)C3)cc(-c2cccs2)c1` [Example 34a, N-(3-(thiophen-2-yl)benzyl)adamantan-1-amine], for which the inhibition at 100 µM was 0 to 30%.
As for `Oc1cc(OCc2ccccc2)ccc1CNC12CC3CC(CC(C3)C1)C2` [Example 37a, 2-(Adamantan-1-ylaminomethyl)-5-benzyloxy-phenol], the inhibition at 100 µM lay within 31 to 95%.
`c1ccc2cc(COc3ccc(CNC45CC6CC(CC(C6)C4)C5)cc3)ccc2c1` [Example 38a, N-(4-(naphthalen-2-ylmethoxy)benzyl)adamantan-1-amine]: the inhibition at 100 µM lay in the range of 0 to 30%.
Consider `c1cnc2ccc(CNC34CC5CC(CC(C5)C3)C4)cc2c1` [Example 39a, Adamantan-1-yl-quinolin-6-ylmethyl-amine], for which the inhibition at 100 µM fell in the range of 0 to 30%.
The same measure, in the same setting: under `COc1ccc2cc(CNC34CC5CC(CC(C5)C3)C4)ccc2c1` [Example 40a, Adamantan-1-yl-(6-methoxy-naphthalen-2-ylmethyl)-amine] stands 0 to 30%.
In the case of `c1cc2cc(CNC34CC5CC(CC(C5)C3)C4)ccc2s1` [Example 41a, N-(benzo[b]thiophen-5-ylmethyl)adamantan-1-amine], the inhibition at 100 µM fell in the range of 31 to 95%.
On to `O=c1ccc2cc(CNC34CC5CC(CC(C5)C3)C4)ccc2o1` [Example 42a, 6-((adamantan-1-ylamino)methyl)-2H-chromen-2-one], for which the inhibition at 100 µM was in the range of 0 to 30%.
With `c1cc2cn[nH]c2cc1CNC12CC3CC(CC(C3)C1)C2` [Example 43a, N-((1H-indazol-6-yl)methyl)adamantan-1-amine], the inhibition at 100 µM was 31 to 95%.
As for `CC(=O)c1ccc(CNC23CC4CC(CC(C4)C2)C3)cc1` [Example 44a], the inhibition at 100 µM was in the range of 0 to 30%.

Still in this assay, the particulars now being: 100 uM; Xenopus oocytes; numeric value; read-out: S31 OOcyte Inhibition at 100 uM (%).
For the compound `c1cn(-c2ccc(CNC34CC5CC(CC(C5)C3)C4)cc2)cn1` [Example 36a, N-(4-(1H-imidazol-1-yl)benzyl)adamantan-1-amine], the inhibition at 100 µM is 16.1%.

The same assay, now with this note: Table 1; 100 uM; Xenopus oocytes, pH 5.5, -20 mV; read-out: S31 OOcyte Inhibition at 100 uM (%).
As for `O=[N+]([O-])c1ccccc1CNC12CC3CC(CC(C3)C1)C2` [Example 30, Adamantan-1-yl-(2-nitro-benzyl)-amine], the inhibition at 100 µM fell in the range of 31 to 95%.
On to `Oc1cccc(CNC23CC4CC(CC(C4)C2)C3)c1` [Example 31, 3-(Adamantan-1-ylaminomethyl)-phenol], for which the inhibition at 100 µM was 31 to 95%.
Regarding `COc1ccc(CN(C)C23CC4CC(CC(C4)C2)C3)cc1` [Example 32, Adamantan-1-yl-(4-methoxy-benzyl)-methyl-amine], the inhibition at 100 µM was in the range of 31 to 95%.
Same read-out and setting: under `CC(=O)Oc1ccc(CNC23CC4CC(CC(C4)C2)C3)cc1` [Example 33, Acetic acid 4-(adamantan-1-ylaminomethyl)-phenyl ester] stands 31 to 95%; under `O=C(Oc1ccc(CNC23CC4CC(CC(C4)C2)C3)cc1)C1CC1` [Example 34, Cyclopropanecarboxylic acid 4-(adamantan-1-ylaminomethyl)-phenyl ester], 0 to 30%.
Consider `c1cnn(-c2ccc(CNC34CC5CC(CC(C5)C3)C4)cc2)c1` [Example 35, Adamantan-1-yl-(4-pyrazol-1-yl-benzyl)-amine], for which the inhibition at 100 µM is 0 to 30%.
Still for that read-out and setting: to `c1cn(-c2ccc(CNC34CC5CC(CC(C5)C3)C4)cc2)cn1` [Example 36, Adamantan-1-yl-(4-imidazol-1-yl-benzyl)-amine] belongs 0 to 30%.
On the same count and under the same terms, under `O=C(Oc1ccc(CNC23CC4CC(CC(C4)C2)C3)cc1)c1cccs1` [Example 37, Thiophene-2-carboxylic acid 4-(adamantan-1-ylaminomethyl)-phenyl ester] stands 0 to 30%; under `CN(CCC#N)c1ccc(CNC23CC4CC(CC(C4)C2)C3)cc1` [Example 38, 3-((4-((Adamantan-1-ylamino)methyl)phenyl)(methyl)amino)propanenitrile], 0 to 30%; under `NC(=O)COc1ccc(CNC23CC4CC(CC(C4)C2)C3)cc1` [Example 39, 2-(4-((Adamantan-1-ylamino)methyl)phenoxy)acetamide], 0 to 30%.
For the compound `c1nc(-c2ccc(CNC34CC5CC(CC(C5)C3)C4)cc2)no1` [Example 40, Adamantan-1-yl-(4-[1,2,4]oxadiazol-3-yl-benzyl)-amine], the inhibition at 100 µM was in the range of 0 to 30%.
On the same count and under the same terms, to `Brc1ccc(CNC23CC4CC(CC(C4)C2)C3)cc1` [Example 41, N-(4-Bromobenzyl)adamantan-1-amine] belongs 31 to 95%; to `c1cc(-c2ccc(CNC34CC5CC(CC(C5)C3)C4)cc2)co1` [Example 42, N-(4-(Furan-3-yl)benzyl)adamantan-1-amine], 0 to 30%; to `CC(=O)c1sccc1-c1ccc(CNC23CC4CC(CC(C4)C2)C3)cc1` [Example 43, 1-(3-(4-((Adamantan-1-ylamino)methyl)phenyl)thiophen-2-yl)ethanone], 0 to 30%.
As for `c1csc(-c2ccc(CNC34CC5CC(CC(C5)C3)C4)cc2)c1` [Example 44, N-(4-(Thiophen-2-yl)benzyl)adamantan-1-amine], the inhibition at 100 µM was 0 to 30%.
In the case of `Oc1ccc(CNC23CC4CC(CC(C4)C2)C3)cc1O` [Example 45, 4-(Adamantan-1-ylaminomethyl)-benzene-1,2-diol], the inhibition at 100 µM lay in the range of 31 to 95%.

Staying with this assay, now noted: Table 3; 100 uM; Xenopus oocytes, pH 5.5, -20 mV; read-out: S31 OOcyte Inhibition at 100 uM (%).
For `CCCc1nc(CNC23CC4CC(CC(C4)C2)C3)no1` [Example 29b, N-((5-propyl-1,2,4-oxadiazol-3-yl)methyl)adamantan-1-amine], the inhibition at 100 µM was in the range of 0 to 30%.
Consider `COc1ccccc1-c1noc(CNC23CC4CC(CC(C4)C2)C3)n1` [Example 30b, N-((3-(2-methoxyphenyl)-1,2,4-oxadiazol-5-yl)methyl)adamantan-1-amine], for which the inhibition at 100 µM was in the range of 0 to 30%.
Take `Clc1ccccc1-c1nc(CNC23CC4CC(CC(C4)C2)C3)no1` [Example 31b, N-((5-(2-chlorophenyl)-1,2,4-oxadiazol-3-yl)methyl)adamantan-1-amine]: the inhibition at 100 µM was in the range of 0 to 30%.
In the case of `c1c(CNC23CC4CC(CC(C4)C2)C3)noc1C1CCCCC1` [Example 32b, N-((5-cyclohexylisoxazol-3-yl)methyl)adamantan-1-amine], the inhibition at 100 µM was in the range of 0 to 30%.
On the same count and under the same terms, under `Fc1cc(F)cc(-c2cc(CNC34CC5CC(CC(C5)C3)C4)no2)c1` [Example 33b, N-((5-(3,5-difluorophenyl)isoxazol-3-yl)methyl)adamantan-1-amine] stands 0 to 30%; under `COc1ccc(-c2nc(CNC34CC5CC(CC(C5)C3)C4)no2)c(OC)c1` [Example 34b, N-((5-(2,4-dimethoxyphenyl)-1,2,4-oxadiazol-3-yl)methyl)adamantan-1-amine], 0 to 30%; under `COc1ccc(-c2noc(CNC34CC5CC(CC(C5)C3)C4)n2)cc1OC` [Example 35b, N-((3-(3,4-dimethoxyphenyl)-1,2,4-oxadiazol-5-yl)methyl)adamantan-1-amine], 0 to 30%.
`FC(F)(F)Oc1ccc(-c2cc(CNC34CC5CC(CC(C5)C3)C4)no2)cc1` [Example 36b, N-((5-(4-(trifluoromethoxy)phenyl)isoxazol-3-yl)methyl)adamantan-1-amine]: the inhibition at 100 µM was in the range of 0 to 30%.
Turning to `CSc1ccc(-c2cc(CNC34CC5CC(CC(C5)C3)C4)no2)cc1` [Example 37b, N-((5-(4-(methylthio)phenyl)isoxazol-3-yl)methyl)adamantan-1-amine], the inhibition at 100 µM was in the range of 0 to 30%.
In the case of `Fc1cccc(F)c1-c1cc(CNC23CC4CC(CC(C4)C2)C3)no1` [Example 38b, N-((5-(2,6-difluorophenyl)isoxazol-3-yl)methyl)adamantan-1-amine], the inhibition at 100 µM lay within 0 to 30%.
In the case of `COc1cccc(-c2cc(CNC34CC5CC(CC(C5)C3)C4)no2)c1` [Example 39b, N-((5-(3-methoxyphenyl)isoxazol-3-yl)methyl)adamantan-1-amine], the inhibition at 100 µM was in the range of 0 to 30%.
On to `CSc1ccc(-c2cc(CNCC34CC5CC(CC(C5)C3)C4)no2)cc1` [Example 40b, 1-((3r,5r,7r)-adamantan-1-yl)-N-((5-(4-(methylthio)phenyl)isoxazol-3-yl)methyl)methanamine], for which the inhibition at 100 µM was in the range of 0 to 30%.
As for `COc1ccc(-c2cc(CNC34CC5CC(CC(C5)C3)C4)no2)c(OC)c1` [Example 41b, N-((5-(2,4-dimethoxyphenyl)isoxazol-3-yl)methyl)adamantan-1-amine], the inhibition at 100 µM fell in the range of 0 to 30%.
As for `CSc1ccccc1-c1cc(CNC23CC4CC(CC(C4)C2)C3)no1` [Example 42b, N-((5-(2-(methylthio)phenyl)isoxazol-3-yl)methyl)adamantan-1-amine], the inhibition at 100 µM is 0 to 30%.
`Brc1ccccc1-c1cc(CNC23CC4CC(CC(C4)C2)C3)no1` [Example 43b, N-((5-(2-bromophenyl)isoxazol-3-yl)methyl)adamantan-1-amine]: the inhibition at 100 µM was in the range of 0 to 30%.
Take `COc1ccsc1-c1cc(CNC23CC4CC(CC(C4)C2)C3)no1` [Example 44b, N-((5-(3-methoxythiophen-2-yl)isoxazol-3-yl)methyl)adamantan-1-amine]: the inhibition at 100 µM fell in the range of 0 to 30%.
